What was measured:
[1] = Safety and tolerability, study 1 SAD part; type: in vivo, human
Method: Safety and tolerability were assessed on the basis of adverse events (AEs), which were monitored throughout both studies. Additional safety assessments included vital signs (including supine [and standing in study 2] heart rate, systolic and diastolic blood pressure, and oral body temperature), 12‐lead electrocardiogram (ECG), clinical laboratory tests (hematology, coagulation [study 2 only], serum/plasma chemistry, urinalysis, urine drug screen, serology, and alcohol breath test), and a comprehensive physical examination. In the SAD part of study 1, clinical laboratory tests, physical examination, and vital signs were assessed at the screening visit, at the time of dosing (0 hours after dose), 24 hours after dosing and at follow‐up (7 to 10 days after the final dose). Vital signs were additionally observed 2 hours after dosing, and the 12‐lead ECG was additionally completed at 1, 2, 6, 8, and 12 hours after dosing. In the MAD part of study 1, all additional safety assessments were performed at screening; days 1, 2, 8, 14, and 15; and at follow‐up. In study 2, additional safety assessments were performed at screening (between 21 and 2 days before the first study drug administration); days 1, 2, 5, 10, 14, 15, and 20 (clinical laboratory tests were not performed on day 20); at early discontinuation; and at follow‐up. For study 2, renal function tests (measurement of estimated creatinine clearance rate using the Cockcroft‐Gault equation) were also included in the clinical laboratory tests for safety assessment.
In both studies, the safety analysis was descriptive and focused on changes from baseline and treatment‐emergent findings.

[2] = design: method as in data on file at Galapagos, 17; conditions: separate study; ref data on file at Galapagos, 17; cited from earlier work

With O=c1nc(OC[C@@H]2COCCO2)cc2n1CCc1cc(C#CC3CC3)ccc1-2 [GLPG1205, 9‐cyclopropylethynyl‐2‐((S)‐1‐[1,4]dioxan‐2‐ylmethoxy)‐6,7‐dihydropyrimido[6,1‐a]isoquinolin‐4‐one] the “subjects with nausea (most frequent TEAE)” value ([1]; SAD part, all doses) was 4 subjects, the “Any TEAE” value ([1]; single 10 mg (n = 6)) was 2 (33.3) number of subjects (%) and the “Dizziness (TEAE)” value ([1]; single 10 mg (n = 6)) was 0 number of subjects (%). The “Gastrointestinal disorders (TEAE)” value ([1]; single 10 mg (n = 6)) was 0 number of subjects (%), the “Headache (TEAE)” value ([1]; single 10 mg (n = 6)) was 1 (16.7) number of subjects (%) and the “Hot flush (TEAE)” value ([1]; single 10 mg (n = 6)) was 0 number of subjects (%). The “Infections and infestations (TEAE)” value ([1]; single 10 mg (n = 6)) was 1 (16.7) number of subjects (%), the “Musculoskeletal and connective tissue disorders (TEAE)” value ([1]; single 10 mg (n = 6)) was 0 number of subjects (%) and the “Nausea (TEAE)” value ([1]; single 10 mg (n = 6)) was 0 number of subjects (%). The “Nervous system disorders (TEAE)” value ([1]; single 10 mg (n = 6)) was 1 (16.7) number of subjects (%), the “Oropharyngeal pain (TEAE)” value ([1]; single 10 mg (n = 6)) was 0 number of subjects (%) and the “Respiratory, thoracic, and mediastinal disorders (TEAE)” value (from here on “Respiratory, thoracic”) ([1]; single 10 mg (n = 6)) was 0 number of subjects (%). The “Somnolence (TEAE)” value ([1]; single 10 mg (n = 6)) was 0 number of subjects (%), the “Torticollis (TEAE)” value ([1]; single 10 mg (n = 6)) was 0 number of subjects (%) and the “Urethritis chlamydial (TEAE)” value ([1]; single 10 mg (n = 6)) was 1 (16.7) number of subjects (%). The “Vascular disorders (TEAE)” value ([1]; single 10 mg (n = 6)) was 0 number of subjects (%), the “Any TEAE” value ([1]; single 30 mg (n = 6)) was 1 (16.7) number of subjects (%) and the “Dizziness (TEAE)” value ([1]; single 30 mg (n = 6)) was 0 number of subjects (%). For the same compound, the “Gastrointestinal disorders (TEAE)” value ([1]; single 30 mg (n = 6)) was 0 number of subjects (%), the “Headache (TEAE)” value ([1]; single 30 mg (n = 6)) was 0 number of subjects (%) and the “Hot flush (TEAE)” value ([1]; single 30 mg (n = 6)) was 0 number of subjects (%). The “Infections and infestations (TEAE)” value ([1]; single 30 mg (n = 6)) was 0 number of subjects (%), the “Musculoskeletal and connective tissue disorders (TEAE)” value ([1]; single 30 mg (n = 6)) was 0 number of subjects (%) and the “Nausea (TEAE)” value ([1]; single 30 mg (n = 6)) was 0 number of subjects (%). The “Nervous system disorders (TEAE)” value ([1]; single 30 mg (n = 6)) was 1 (16.7) number of subjects (%), the “Oropharyngeal pain (TEAE)” value ([1]; single 30 mg (n = 6)) was 0 number of subjects (%) and the “Respiratory, thoracic” value ([1]; single 30 mg (n = 6)) was 0 number of subjects (%). The “Somnolence (TEAE)” value ([1]; single 30 mg (n = 6)) was 1 (16.7) number of subjects (%), the “Torticollis (TEAE)” value ([1]; single 30 mg (n = 6)) was 0 number of subjects (%) and the “Urethritis chlamydial (TEAE)” value ([1]; single 30 mg (n = 6)) was 0 number of subjects (%). For the same compound, the “Vascular disorders (TEAE)” value ([1]; single 30 mg (n = 6)) was 0 number of subjects (%), the “Any TEAE” value ([1]; single 90 mg (n = 6)) was 0 number of subjects (%) and the “Dizziness (TEAE)” value ([1]; single 90 mg (n = 6)) was 0 number of subjects (%). For the same compound, the “Gastrointestinal disorders (TEAE)” value ([1]; single 90 mg (n = 6)) was 0 number of subjects (%), the “Headache (TEAE)” value ([1]; single 90 mg (n = 6)) was 0 number of subjects (%) and the “Hot flush (TEAE)” value ([1]; single 90 mg (n = 6)) was 0 number of subjects (%). The “Infections and infestations (TEAE)” value ([1]; single 90 mg (n = 6)) was 0 number of subjects (%), the “Musculoskeletal and connective tissue disorders (TEAE)” value ([1]; single 90 mg (n = 6)) was 0 number of subjects (%) and the “Nausea (TEAE)” value ([1]; single 90 mg (n = 6)) was 0 number of subjects (%). For the same compound, the “Nervous system disorders (TEAE)” value ([1]; single 90 mg (n = 6)) was 0 number of subjects (%), the “Oropharyngeal pain (TEAE)” value ([1]; single 90 mg (n = 6)) was 0 number of subjects (%) and the “Respiratory, thoracic” value ([1]; single 90 mg (n = 6)) was 0 number of subjects (%). The “Somnolence (TEAE)” value ([1]; single 90 mg (n = 6)) was 0 number of subjects (%), the “Torticollis (TEAE)” value ([1]; single 90 mg (n = 6)) was 0 number of subjects (%) and the “Urethritis chlamydial (TEAE)” value ([1]; single 90 mg (n = 6)) was 0 number of subjects (%). The “Vascular disorders (TEAE)” value ([1]; single 90 mg (n = 6)) was 0 number of subjects (%), the “Any TEAE” value ([1]; single 200 mg (n = 6)) was 1 (16.7) number of subjects (%) and the “Dizziness (TEAE)” value ([1]; single 200 mg (n = 6)) was 0 number of subjects (%). For the same compound, the “Gastrointestinal disorders (TEAE)” value ([1]; single 200 mg (n = 6)) was 1 (16.7) number of subjects (%), the “Headache (TEAE)” value ([1]; single 200 mg (n = 6)) was 0 number of subjects (%) and the “Hot flush (TEAE)” value ([1]; single 200 mg (n = 6)) was 0 number of subjects (%). The “Infections and infestations (TEAE)” value ([1]; single 200 mg (n = 6)) was 0 number of subjects (%), the “Musculoskeletal and connective tissue disorders (TEAE)” value ([1]; single 200 mg (n = 6)) was 0 number of subjects (%) and the “Nausea (TEAE)” value ([1]; single 200 mg (n = 6)) was 1 (16.7) number of subjects (%). For the same compound, the “Nervous system disorders (TEAE)” value ([1]; single 200 mg (n = 6)) was 0 number of subjects (%), the “Oropharyngeal pain (TEAE)” value ([1]; single 200 mg (n = 6)) was 0 number of subjects (%) and the “Respiratory, thoracic” value ([1]; single 200 mg (n = 6)) was 0 number of subjects (%). The “Somnolence (TEAE)” value ([1]; single 200 mg (n = 6)) was 0 number of subjects (%), the “Torticollis (TEAE)” value ([1]; single 200 mg (n = 6)) was 0 number of subjects (%) and the “Urethritis chlamydial (TEAE)” value ([1]; single 200 mg (n = 6)) was 0 number of subjects (%). For the same compound, the “Vascular disorders (TEAE)” value ([1]; single 200 mg (n = 6)) was 0 number of subjects (%), the “Any TEAE” value ([1]; single 400 mg (n = 6)) was 3 (50.0) number of subjects (%) and the “Dizziness (TEAE)” value ([1]; single 400 mg (n = 6)) was 0 number of subjects (%). For the same compound, the “Gastrointestinal disorders (TEAE)” value ([1]; single 400 mg (n = 6)) was 1 (16.7) number of subjects (%), the “Headache (TEAE)” value ([1]; single 400 mg (n = 6)) was 1 (16.7) number of subjects (%) and the “Hot flush (TEAE)” value ([1]; single 400 mg (n = 6)) was 1 (16.7) number of subjects (%). For the same compound, the “Infections and infestations (TEAE)” value ([1]; single 400 mg (n = 6)) was 0 number of subjects (%), the “Musculoskeletal and connective tissue disorders (TEAE)” value ([1]; single 400 mg (n = 6)) was 1 (16.7) number of subjects (%) and the “Nausea (TEAE)” value ([1]; single 400 mg (n = 6)) was 1 (16.7) number of subjects (%). For the same compound, the “Nervous system disorders (TEAE)” value ([1]; single 400 mg (n = 6)) was 1 (16.7) number of subjects (%), the “Oropharyngeal pain (TEAE)” value ([1]; single 400 mg (n = 6)) was 0 number of subjects (%) and the “Respiratory, thoracic” value ([1]; single 400 mg (n = 6)) was 0 number of subjects (%). The “Somnolence (TEAE)” value ([1]; single 400 mg (n = 6)) was 0 number of subjects (%), the “Torticollis (TEAE)” value ([1]; single 400 mg (n = 6)) was 1 (16.7) number of subjects (%) and the “Urethritis chlamydial (TEAE)” value ([1]; single 400 mg (n = 6)) was 0 number of subjects (%). The “Vascular disorders (TEAE)” value ([1]; single 400 mg (n = 6)) was 1 (16.7) number of subjects (%), the “Any TEAE” value ([1]; single 600 mg (n = 6)) was 0 number of subjects (%) and the “Dizziness (TEAE)” value ([1]; single 600 mg (n = 6)) was 0 number of subjects (%). For the same compound, the “Gastrointestinal disorders (TEAE)” value ([1]; single 600 mg (n = 6)) was 0 number of subjects (%), the “Headache (TEAE)” value ([1]; single 600 mg (n = 6)) was 0 number of subjects (%) and the “Hot flush (TEAE)” value ([1]; single 600 mg (n = 6)) was 0 number of subjects (%). For the same compound, the “Infections and infestations (TEAE)” value ([1]; single 600 mg (n = 6)) was 0 number of subjects (%), the “Musculoskeletal and connective tissue disorders (TEAE)” value ([1]; single 600 mg (n = 6)) was 0 number of subjects (%) and the “Nausea (TEAE)” value ([1]; single 600 mg (n = 6)) was 0 number of subjects (%). For the same compound, the “Nervous system disorders (TEAE)” value ([1]; single 600 mg (n = 6)) was 0 number of subjects (%), the “Oropharyngeal pain (TEAE)” value ([1]; single 600 mg (n = 6)) was 0 number of subjects (%) and the “Respiratory, thoracic” value ([1]; single 600 mg (n = 6)) was 0 number of subjects (%). The “Somnolence (TEAE)” value ([1]; single 600 mg (n = 6)) was 0 number of subjects (%), the “Torticollis (TEAE)” value ([1]; single 600 mg (n = 6)) was 0 number of subjects (%) and the “Urethritis chlamydial (TEAE)” value ([1]; single 600 mg (n = 6)) was 0 number of subjects (%). For the same compound, the “Vascular disorders (TEAE)” value ([1]; single 600 mg (n = 6)) was 0 number of subjects (%), the “Any TEAE” value ([1]; single 800 mg (n = 6)) was 5 (83.3) number of subjects (%) and the “Dizziness (TEAE)” value ([1]; single 800 mg (n = 6)) was 1 (16.7) number of subjects (%). The “Gastrointestinal disorders (TEAE)” value ([1]; single 800 mg (n = 6)) was 2 (33.3) number of subjects (%), the “Headache (TEAE)” value ([1]; single 800 mg (n = 6)) was 1 (16.7) number of subjects (%) and the “Hot flush (TEAE)” value ([1]; single 800 mg (n = 6)) was 0 number of subjects (%). For the same compound, the “Infections and infestations (TEAE)” value ([1]; single 800 mg (n = 6)) was 0 number of subjects (%), the “Musculoskeletal and connective tissue disorders (TEAE)” value ([1]; single 800 mg (n = 6)) was 0 number of subjects (%) and the “Nausea (TEAE)” value ([1]; single 800 mg (n = 6)) was 2 (33.3) number of subjects (%). The “Nervous system disorders (TEAE)” value ([1]; single 800 mg (n = 6)) was 3 (50.0) number of subjects (%), the “Oropharyngeal pain (TEAE)” value ([1]; single 800 mg (n = 6)) was 2 (33.3) number of subjects (%) and the “Respiratory, thoracic” value ([1]; single 800 mg (n = 6)) was 2 (33.3) number of subjects (%). For the same compound, the “Somnolence (TEAE)” value ([1]; single 800 mg (n = 6)) was 1 (16.7) number of subjects (%), the “Torticollis (TEAE)” value ([1]; single 800 mg (n = 6)) was 0 number of subjects (%) and the “Urethritis chlamydial (TEAE)” value ([1]; single 800 mg (n = 6)) was 0 number of subjects (%). For the same compound, the “Vascular disorders (TEAE)” value ([1]; single 800 mg (n = 6)) was 0 number of subjects (%) and the “food effect on GLPG1205 exposure” value [2] was “no food effect”.

Source: publication PMC8453901, “GLPG1205, a GPR84 Modulator: Safety, Pharmacokinetics, and Pharmacodynamics in Healthy Subjects” (Clinical Pharmacology in Drug Development, 2021)
